Assay results from article PMC4303209, “A novel phosphatidylinositol 3-kinase (PI3K) inhibitor directs a potent FOXO-dependent, p53-independent cell cycle arrest phenotype characterized by the differential induction of a subset of FOXO-regulated genes” (Breast Cancer Research : BCR, 2014).

Tested on: MCF-7 breast cancer cells
Assay: Microarray gene expression analysis (Agilent whole human genome 4 x 44K; compound vs DMSO, LIMMA log2 fold change)
Assay type: cell-based
Settings: Apoptosis genes

Cn1ncc2c(N3CCOCC3)nc(-c3cccc(O)c3)nc21 [ETP-45658]
PML log2FC (Gene 5371): -0.804
POLR2G log2FC (Gene 5436): 0.335
POU3F3 log2FC (Gene 5455): -0.318
POU4F1 log2FC (Gene 5457): -0.504
POU4F3 log2FC (Gene 5459): -0.263
PPARD log2FC (Gene 5467): -0.520
PPARG log2FC (Gene 5468): -0.185
PPID log2FC (Gene 5481): 0.248
PPP1CA log2FC (Gene 5499): -0.227
PPP2CA log2FC (Gene 5515): -0.322
PPP2CB log2FC (Gene 5516): -0.242
PPP2R1B log2FC (Gene 5519): -0.532
PPP2R2B log2FC (Gene 5521): 0.082
PPP2R4 log2FC (Gene 5524): -0.446
PPP2R5C log2FC (Gene 5527): 0.888
PPP3CC log2FC (Gene 5533): 0.163
PPP3R1 log2FC (Gene 5534): -0.308
PPT1 log2FC (Gene 5538): 0.432
PRF1 log2FC (Gene 5551): -0.050
PRKAA1 log2FC (Gene 5562): 0.429
PRKAA2 log2FC (Gene 5563): 0.082
PRKCA log2FC (Gene 5578): -0.217
PRKCD log2FC (Gene 5580): -0.079
PRKCE log2FC (Gene 5581): -0.042
PRKCG log2FC (Gene 5582): -0.093
PRKCH log2FC (Gene 5583): -0.256
PRKCI log2FC (Gene 5584): 0.583
PKN2 log2FC (Gene 5586): 0.510
PRKD1 log2FC (Gene 5587): 0.494
PRKCQ log2FC (Gene 5588): 0.132
PRKCZ log2FC (Gene 5590): 0.430
PRKDC log2FC (Gene 5591): 0.131
MAPK3 log2FC (Gene 5595): -0.190
MAPK7 log2FC (Gene 5598): -0.336
MAP2K6 log2FC (Gene 5608): 0.116
PRODH log2FC (Gene 5625): -0.290
LGMN log2FC (Gene 5641): -0.066
PSEN1 log2FC (Gene 5663): 0.418
PSEN2 log2FC (Gene 5664): -0.458
PSMA2 log2FC (Gene 5683): 0.460
PSMA3 log2FC (Gene 5684): 0.270
PSMA4 log2FC (Gene 5685): 0.609
PSMA6 log2FC (Gene 5687): 0.200
PSMB1 log2FC (Gene 5689): 0.085
PSMB2 log2FC (Gene 5690): -0.547
PSMB4 log2FC (Gene 5692): 0.132
PSMB5 log2FC (Gene 5693): -0.298
PSMB6 log2FC (Gene 5694): -0.120
PSMB9 log2FC (Gene 5698): -0.203
PSMB10 log2FC (Gene 5699): -0.184
PSMC1 log2FC (Gene 5700): 0.172
PSMC2 log2FC (Gene 5701): 0.576
PSMC3 log2FC (Gene 5702): -0.176
PSMC5 log2FC (Gene 5705): -0.327
PSMC6 log2FC (Gene 5706): 0.776
PSMD1 log2FC (Gene 5707): 0.397
PSMD3 log2FC (Gene 5709): -0.109
PSMD4 log2FC (Gene 5710): -0.086
PSMD5 log2FC (Gene 5711): 0.388
PSMD7 log2FC (Gene 5713): 0.182
PSMD8 log2FC (Gene 5714): -0.132
PSMD9 log2FC (Gene 5715): -0.171
PSMD10 log2FC (Gene 5716): -0.293
PSMD11 log2FC (Gene 5717): -0.214
PSMD12 log2FC (Gene 5718): -0.582
PSME1 log2FC (Gene 5720): 0.322
PTEN log2FC (Gene 5728): 1.014
PTGFR log2FC (Gene 5737): -0.039
PTGIS log2FC (Gene 5740): 0.033
PTH log2FC (Gene 5741): -0.079
PTGS2 log2FC (Gene 5743): -0.151
PTK2 log2FC (Gene 5747): 0.157
PTPN6 log2FC (Gene 5777): 0.120
PTPRC log2FC (Gene 5788): -0.053
PTPRH log2FC (Gene 5794): 0.279
RAC1 log2FC (Gene 5879): -0.258
RAD9A log2FC (Gene 5883): 0.686
RAD21 log2FC (Gene 5885): 1.043
RAG1 log2FC (Gene 5896): 0.657
RALB log2FC (Gene 5899): 0.324
RARA log2FC (Gene 5914): -0.580
RARG log2FC (Gene 5916): -0.272
RASA1 log2FC (Gene 5921): 0.488
RASGRF2 log2FC (Gene 5924): -0.240
RB1 log2FC (Gene 5925): 0.746
RELA log2FC (Gene 5970): -0.454
DPF2 log2FC (Gene 5977): 0.303
REST log2FC (Gene 5978): 0.367
ROBO1 log2FC (Gene 6091): 0.128
ROBO2 log2FC (Gene 6092): -0.056
ROCK1 log2FC (Gene 6093): 0.615
RPS3A log2FC (Gene 6189): 0.669
RPS6 log2FC (Gene 6194): 0.357
RPS6KA1 log2FC (Gene 6195): -0.234
RPS6KA3 log2FC (Gene 6197): 0.412
RPS6KB1 log2FC (Gene 6198): 0.426
RPS27A log2FC (Gene 6233): 0.401
RTKN log2FC (Gene 6242): -0.208
SORT1 log2FC (Gene 6272): 0.261
S100A8 log2FC (Gene 6279): 0.469
S100B log2FC (Gene 6285): -0.122
SATB1 log2FC (Gene 6304): 0.589
SCT log2FC (Gene 6343): -0.095
CCL2 log2FC (Gene 6347): -0.179
CCL3 log2FC (Gene 6348): -0.223
CCL5 log2FC (Gene 6352): 0.088
CCL21 log2FC (Gene 6366): -0.170
CX3CL1 log2FC (Gene 6376): -0.563
CXCL12 log2FC (Gene 6387): -0.211
MAP2K4 log2FC (Gene 6416): 0.120
SET log2FC (Gene 6418): 0.225
SFRP1 log2FC (Gene 6422): 0.214
SFRP2 log2FC (Gene 6423): -0.093
SFRP4 log2FC (Gene 6424): 0.051
SFRP5 log2FC (Gene 6425): -0.042
ITSN1 log2FC (Gene 6453): 0.278
SHB log2FC (Gene 6461): -0.876
SHH log2FC (Gene 6469): -0.209
SIAH1 log2FC (Gene 6477): 0.248
SIAH2 log2FC (Gene 6478): -0.579
STIL log2FC (Gene 6491): 0.485
SIX1 log2FC (Gene 6495): -0.507
SKI log2FC (Gene 6497): -0.663
SLC9A1 log2FC (Gene 6548): -0.600
SLIT3 log2FC (Gene 6586): -0.286
SNAI2 log2FC (Gene 6591): 0.199
SMO log2FC (Gene 6608): -0.194
SMPD1 log2FC (Gene 6609): 0.257
SMPD2 log2FC (Gene 6610): -0.399
SIGLEC1 log2FC (Gene 6614): -0.350
SNAI1 log2FC (Gene 6615): -0.710
SNCB log2FC (Gene 6620): -0.626
SNCA log2FC (Gene 6622): -0.041
SOD2 log2FC (Gene 6648): 0.179
SON log2FC (Gene 6651): -0.111
SOX2 log2FC (Gene 6657): 0.298
SOX4 log2FC (Gene 6659): 0.216
SOX9 log2FC (Gene 6662): -2.381
SOX10 log2FC (Gene 6663): -0.095
SP100 log2FC (Gene 6672): 0.968
SPI1 log2FC (Gene 6688): -0.242
SPN log2FC (Gene 6693): -0.216
SRC log2FC (Gene 6714): -0.316
SRPK2 log2FC (Gene 6733): 0.850
SST log2FC (Gene 6750): 0.289
SSTR3 log2FC (Gene 6753): -0.375
STAR log2FC (Gene 6770): -0.189
STAT1 log2FC (Gene 6772): 0.445
STAT5A log2FC (Gene 6776): 0.569
STAT5B log2FC (Gene 6777): 0.093
STK4 log2FC (Gene 6789): 0.158
STK11 log2FC (Gene 6794): -0.165
STXBP1 log2FC (Gene 6812): -0.504
SUPV3L1 log2FC (Gene 6832): 0.440
ADAM17 log2FC (Gene 6868): 0.578
TAF9 log2FC (Gene 6880): 0.363
MAP3K7 log2FC (Gene 6885): 0.181
